Reference: patent US20110184034A1, “Severe sepsis preventive therapeutic agent” (priority 2002, published 2011)

Tests used:
[1] = test system: TLR4 signal (LPS), mouse macrophage cell line RAW264.7; assay: NO production by TLR4 selective agonist LPS in RAW264.7; format: cell-based; conditions: RAW264.7, LPS 5 ng/mL + interferon-γ 0.1 ng/mL, nitrite ion
Experimental: (§1) Using mouse macrophage cell line RAW264.7, the suppressive effect of the test substance on cytokine production by a TLR selective agonist was investigated. On the previous day of the experiment, the cells were suspended in RPMI-1640 medium supplemented with 10% inactivated fetal calf serum to 5×10^5 cells/mL and inoculated to a 96-well microplate at 0.2 mL/well. After incubation at 37° C. under an atmosphere of 5% CO2/95% air overnight, the medium was changed to an RPMI-1640 medium supplemented with 1% inactivated fetal calf serum, and a test substance, various TLR agonists and interferon-γ (final concentration 0.1 ng/mL) were added. After further incubation overnight, the concentration of nitrite ion (stable metabolite of NO) in the culture supernatant was quantified by fluorescence method using 2,3-dimaminonaphthalene. As the TLR4 selective agonist, LPS was added, as the TLR2 selective agonist, peptide glycan (PGN) was added, and as the TLR9 selective agonist, CpG oligoDNA (CPG) was added, to the final concentrations of 5 ng/mL, 1 μg/mL and 75 nmol/L, respectively. In addition, the test substance was dissolved at 10 mM in N,N-dimethylformamide, diluted with an RPMI-1640 medium supplemented with 1% inactivated fetal calf serum to the concentration of 0.1 mM, then diluted with a medium to a 10-fold concentration of the final concentration and 1/10 was added.

[2] = test system: TLR2 signal (PGN), mouse macrophage cell line RAW264.7; assay: NO production by TLR2 selective agonist peptide glycan (PGN) in RAW264.7; format: cell-based; conditions: RAW264.7, PGN 1 μg/mL + interferon-γ 0.1 ng/mL, nitrite ion
Experimental: as §1

[3] = test system: TLR9 signal (CPG), mouse macrophage cell line RAW264.7; assay: NO production by TLR9 selective agonist CpG oligoDNA (CPG) in RAW264.7; format: cell-based; conditions: RAW264.7, CpG oligoDNA 75 nmol/L + interferon-γ 0.1 ng/mL, nitrite ion
Experimental: as §1

[4] = test system: IL-6 production, mouse macrophage cell line RAW264.7; assay: IL-6 production by β-amyloid peptide (1-40) in RAW264.7; format: cell-based; conditions: β-amyloid peptide (1-40) 10 μM + interferon-γ 10 U/mL
Experimental: (§2) On the previous day of the experiment, the cells were suspended in RPMI-1640 medium supplemented with 10% inactivated fetal calf serum to 5×10^5 cells/mL and inoculated to a 96-well microplate at 0.2 mL/well. After incubation at 37° C. under 5% CO2/95% air overnight, the medium was changed to an RPMI-1640 medium supplemented with 1% inactivated fetal calf serum, a test substance and β-amyloid peptide (1-40) (final concentration 10 μM) and interferon-γ (final concentration 10 U/mL) were added. After further incubation overnight, the concentrations of tumor necrosis factor-α (TNF-α) and IL-6 in culture supernatants were measured using an enzyme immunoassay kit manufactured by Amersham. The test substance was dissolved at 10 mM in N,N-dimethylformamide and diluted with an RPMI-1640 medium supplemented with 1%, inactivated fetal calf serum to the concentration of 0.1 mM, then diluted with a medium to a 10-fold concentration of the final concentration and 1/10 was added.

[5] = test system: TNF-α production, mouse macrophage cell line RAW264.7; assay: TNF-α production by β-amyloid peptide (1-40) in RAW264.7; format: cell-based; conditions: β-amyloid peptide (1-40) 10 μM + interferon-γ 10 U/mL
Experimental: as §2

[6] = test system: LPS-inoculated female BALB/c mice; assay: Effect by administration after LPS inoculation in endotoxin shock model (1), survival; format: in vivo, mouse; conditions: LPS 10 mg/kg i.p.; test substance 30 mg/kg i.p. at 1 hr after LPS inoculation; observed one week
Experimental: To investigate the treatment effect during the process toward an advanced degree after the onset of sepsis, the effect of a test substance (Reference Example B1) by administration after LPS inoculation in an endotoxin shock model was investigated. […] The test substance was suspended in 0.5% aqueous methyl cellulose solution, and intraperitoneally inoculated (30 mg/kg) at 1 hr before, immediately after, 30 min after and 1 hr after LPS inoculation. The solvent was given to the control group at 1 hr before LPS inoculation.

[7] = test system: male Sprague-Dawley rats, balloon-injured carotid artery; assay: Rat balloon injury model, vascular thickening (DNA content of carotid artery); format: in vivo; conditions: 30 and 100 mg/kg/d i.p. once a day, 2 weeks
Experimental: Using male Sprague-Dawley rats, the neck was incised under sodium pentobarbital (45 mg/kg ip) anesthesia to expose left carotid artery. A Forgaty catheter (2F, manufactured by Baxtar) was inserted from the […] to a bifurcation area of internal and external carotid arteries of left carotid artery, a balloon was blown and abraded to the aortic arch bifurcation. This operation was repeated three times to injure the common carotid artery. After the injury, the catheter was extracted, the incision was sutured, and the rats were individually bred in ordinary breeding cages. After 2 weeks from the injury, the rats were exsanguinated under anesthesia, and the left (injured) side and the right (non-injured) side of carotid arteries were removed by 5 mm on the heart side, at 5 mm from the internal and external carotid artery bifurcation area, and the DNA content was measured. The drug (Reference Example B3) was suspended in 0.5% methyl cellulose, and intraperitoneally administered once a day from the day of balloon injury operation to carotid artery enucleation. When balloon injury operation was performed, the drug was administered 30 min before anesthesia and the balloon injury was produced.

[8] = test system: male DBA/1 mice, type II collagen induced arthritis; assay: Collagen induced arthritis model; format: in vivo, mouse; conditions: for Arthritis incidence (%) / Arthritis index: 30 mg/kg orally once a day from collagen immunization
Experimental: Bovine-derived type II collagen was dissolved in 0.050 acetic acid solution, and an equivalent amount of Freund's complete adjuvant was mixed therewith to give an emulsion. The collagen emulsion was administered intracutaneously into the tail head of male DBA/1 mice (6W) (n=10-12) at 100 μg/0.1 mL to induce arthritis. The levels of flare and edema of four limbs were visually observed during the progress thereof. The drug (Reference Example B3) (30 mg/kg) was suspended in 0.5% MC, and orally administered once a day from collagen immunization for 8 weeks (except Sundays). The onset of arthritis was evaluated every week, and the rate of onset was expressed by (number of limbs having arthritis/number of limbs of mice in one group×100). As indices of arthritis, for each limb, no change was 0, swelling of one finger or plural fingers was 1, flare and swelling seen in the entirety was 2, strong swelling seen in the entirety was 3, crampus tonicus of joint was 4, and the total of four limbs was 16, and arthritis was expressed in (total of all scores of onset mice/number of limbs of mice in one group), wherein 4 was the highest value for one limb.

[9] = test system: female CBA/J mice, DSS induced colitis; assay: Dextran sulfate induced colitis model; format: in vivo, mouse; conditions: for BW (%) / Hb / Ht (%) / RBC / WBC: means ± SE of six mice; for GBS (%) (grossly bloody stool): six mice
Experimental: A 5% dextran sulfate (DSS) solution was placed in a water feeder to allow free drinking by female CBA/J mice (8 w) for 5 days, the solution was changed to 1% DSS solution on day 6 to allow free drinking for 7 days. The drug (Reference Example B3) (10-30 mg/kg) was suspended in 0.5% methyl cellulose (MC), and orally administered from day 6 under 1% DSS solution drinking once a day for 7 days. After 12 days of drinking DSS, the body weight was measured and stool was observed (grossly bloody stool: GBS). Blood was drawn and white blood count (WBC), red blood count (RBC), hemoglobin concentration (Hb) and hematocrit value (Ht) were measured by using an automatic cell counter (Sysmex).

[10] = test system: LPS-inoculated female BALB/c mice; assay: Effect by administration after LPS inoculation in endotoxin shock model (2), survival; format: in vivo, mouse; conditions: LPS 4 mg/kg i.p.; test substance 10 mg/kg i.v. (soybean oil emulsion) at 4 hr after LPS inoculation; observed 5 days
Experimental: To investigate the treatment effect during the process toward an advanced degree after the onset of sepsis, the effect of a test substance (Reference Example B66) by administration after LPS inoculation in an endotoxin shock model was investigated. […] The test substance was prepared into an emulsified liquid of a soybean oil, and intravenously administered (10 mg/kg) immediately after, 1, 2, 4 and 6 hr after LPS inoculation. An emulsified liquid without a drug was intravenously administered to the control group immediately after LPS inoculation.

[11] = test system: E. coli O111 inoculated galactosamine-loaded female BALB/c mice; assay: Galactosamine loaded mouse Escherichia coli inoculated lethal model, survival; format: in vivo; conditions: E. coli O111 5.9×10^5 CFU i.p. with galactosamine 1 g/kg; test substance 30 mg/kg orally at 1 hr after bacterial inoculation; observed 6 days
Experimental: Since sepsis is a systemic inflammatory response caused by infection, the effect of a test substance (Reference Example B26) by administration after bacterial inoculation in infection model was studied. […] The test substance was suspended in 0.5% aqueous methyl cellulose solution, and orally administered (30 mg/kg) immediately, 30 min and 1, 2 and 4 hr after the bacterial inoculation. The solvent was orally administered to the control group immediately after the bacterial inoculation.
In other words, the test substance can be expected to show effect of improving the state of severe sepsis complicated with organ dysfunction.

[12] = 10 mg/kg orally once a day for 7 days
[13] = 30 mg/kg orally once a day for 7 days

CCOC(=O)C1=CCCCC1S(=O)(=O)Cc1ccc(F)cc1Cl (stereo not drawn) [Reference Example D4, ethyl 6-[(2-chloro-4-fluorobenzyl)sulfonyl]-1-cyclohexene-1-carboxylate]
IC50 [1]: 11 nM | IC50 [2]: > 1000 nM | IC50 [3]: > 1000 nM

CCOC(=O)C1=CCCCC1S(=O)(=O)Nc1ccc(Cl)cc1F (stereo not drawn) [Reference Example B1, ethyl 6-[N-(4-chloro-2-fluorophenyl)-sulfamoyl]-1-cyclohexene-1-carboxylate]
Suppressive rate (%) IL-6 ([4]; 1 μM): 80% | Suppressive rate (%) IL-6 ([4]; 10 μM): 100% | Suppressive rate (%) TNF-α ([5]; 1 μM): 77% | Suppressive rate (%) TNF-α ([5]; 10 μM): 99% | life-saving effect (survival) [6]: clear life-saving effect

CCOC(=O)C1=CCCCC1S(=O)(=O)Nc1ccc(F)cc1F (stereo not drawn) [Reference Example B3, ethyl 6-[N-(2,4-difluorophenyl)sulfamoyl]-1-cyclohexene-1-carboxylate]
vascular thickening due to balloon injury (DNA content) [7]: suppressed vascular thickening due to balloon injury in a dose-dependent manner | Suppressive rate (%) IL-6 ([4]; 1 μM): 100% | Suppressive rate (%) IL-6 ([4]; 10 μM): 100% | incidence and index of arthritis ([8]; 30 mg/kg orally): decreased the incidence and index of arthritis | Arthritis incidence (%) ([8]; 6W): 37.5% | Arthritis index ([8]; 6W): 0.65 | Arthritis incidence (%) ([8]; 7W): 40.0% | Arthritis index ([8]; 7W): 0.80 | Arthritis incidence (%) ([8]; 8W): 60.0% | Arthritis index ([8]; 8W): 1.15 | BW (%) [9, 12]: 102.0 ± 7.1% | Hb [9, 12]: 13.2 ± 0.8 g/dL | Ht (%) [9, 12]: 35.4 ± 2.7% | RBC [9, 12]: 607.5 ± 45.3 ×10^4/μL | WBC [9, 12]: 41.0 ± 4.1^+ ×10^2/μL | GBS (%) (grossly bloody stool) [9, 12]: 83% | BW (%) [9, 13]: 102.8 ± 7.9% | Hb [9, 13]: 12.9 ± 0.5 g/dL | Ht (%) [9, 13]: 35.1 ± 2.7% | RBC [9, 13]: 616.7 ± 51.1 ×10^4/μL | WBC [9, 13]: 53.5 ± 7.8^+ ×10^2/μL | GBS (%) (grossly bloody stool) [9, 13]: 67% | changes in WBC, RBC, Hb and Ht induced by DSS ([9]; 10-30 mg/kg orally): remarkably suppressed changes in WBC, RBC, Hb and Ht induced by DSS | Suppressive rate (%) TNF-α ([5]; 1 μM): 87% | Suppressive rate (%) TNF-α ([5]; 10 μM): 97%

CCOC(=O)C1=CCOCC1S(=O)(=O)Nc1ccc(F)cc1Cl (stereo not drawn) [Reference Example D7, ethyl 3-[(2-chloro-4-fluorophenyl)sulfamoyl]-3,6-dihydro-2H-pyran-4-carboxylate]
IC50 [1]: 18 nM | IC50 [2]: 530 nM | IC50 [3]: > 1000 nM

CCOC(=O)C1=CCCC[C@H]1S(=O)(=O)Nc1ccc(F)cc1Cl [Reference Example B66, ethyl (6R)-6-[(2-chloro-4-fluoroanilino)sulfonyl]-1-cyclohexene-1-carboxylate]
IC50 [1]: 10 nM | IC50 [2]: > 1000 nM | life-saving effect (survival) [10]: clear life-saving effect | IC50 [3]: > 1000 nM

CCOC(=O)C1=CCCCC1S(=O)(=O)Nc1ccc(F)cc1Cl (stereo not drawn) [Reference Example B26, ethyl 6-[N-(2-chloro-4-fluorophenyl)-sulfamoyl]-1-cyclohexene-1-carboxylate]
Suppressive rate (%) IL-6 ([4]; 1 μM): 93% | Suppressive rate (%) IL-6 ([4]; 10 μM): 96% | Suppressive rate (%) TNF-α ([5]; 1 μM): 88% | Suppressive rate (%) TNF-α ([5]; 10 μM): 100% | life-saving effect (survival) [11]: clear life-saving effect
